Key:
CCRF-CEM [1] = assay: In vitro inhibitory activity against replication of HIV-1 in human lymphocyte CEM cells; type: functional, cell-based
CCRF-CEM [2] = assay: In vitro inhibitory activity against replication of HIV-2 in human lymphocyte CEM cells; type: functional, cell-based
CCRF-CEM [3] = assay: In vitro inhibitory activity against replication of HIV-2 in human lymphocyte thymidine kinase deficient CEM cells; type: functional, cell-based
MT4 [4] = assay: Cytotoxicity against human lymphocyte MT-4 cells; type: functional
MT4 [5] = assay: In vitro inhibitory activity against replication of HIV-2 in human lymphocyte MT-4 cells; type: functional, cell-based
MT4 [6] = assay: In vitro inhibitory activity against replication of HIV-1 in human lymphocyte MT-4 cells; type: functional, cell-based

Row | Compound | EC50 (CCRF-CEM [1]) | EC50 (CCRF-CEM [2]) | EC50 (CCRF-CEM [3]) | CC50 (MT4 [4]) | EC50 (MT4 [5]) | EC50 (MT4 [6])
1 | Cc1cn(C2CC(N=[N+]=[N-])C(COP(=O)(Oc3ccccc3[N+](=O)[O-])Oc3ccccc3[N+](=O)[O-])O2)c(=O)[nH]c1=O (configuration not stated) | 5.3 nM | 6.2 nM | > 100000 nM | 42000 nM | 14 nM | 12.1 nM
2 | Cc1cn(C2CC(N=[N+]=[N-])C(COP(=O)(Oc3cccc([N+](=O)[O-])c3)Oc3cccc([N+](=O)[O-])c3)O2)c(=O)[nH]c1=O (configuration not stated) | 3.8 nM | 3.8 nM | 85000 nM | 36000 nM | 3.1 nM | 2.5 nM
3 | Cc1cn(C2CC(N=[N+]=[N-])C(COP(=O)(Oc3ccc([N+](=O)[O-])cc3)Oc3ccc([N+](=O)[O-])cc3)O2)c(=O)[nH]c1=O (configuration not stated) | 9 nM | 15 nM | 50000 nM | 50000 nM | 10 nM | 13 nM
4 | Cc1cn([C@H]2C[C@H](N=[N+]=[N-])[C@@H](CO)O2)c(=O)[nH]c1=O [ZIDOVUDINE] |  | 3.5 nM | > 100000 nM | 6000 nM |  | 2.5 nM

Source: ChEMBL document CHEMBL1150553, “Diaryl phosphate derivatives act as pro-drugs of AZT with reduced cytotoxicity compared to the parent nucleoside” (Bioorg Med Chem Lett, 1994)
